System: isolated guinea pig heart
Test: Effect on coronary blood flow of the isolated guinea pig heart (perfusion with KH solution)
Experimental: 1. Effect on coronary blood flow of the isolated guinea pig heart. • (1) The perfusion circuit was maintained at 37±1° C. and the perfusate in the condensing tube was thermostatic. The upper end of the condensing tube was connected with reservoir and the lower with aortic cannula via rubber tube. The perfusate level in reservoir A was constant by controlling the height of liquid below the air inlet in reservoir B. The perfusate level was about 50 cm above the aortic root. Constant oxygen was gassed into reservoir A to make the KH solution saturated with oxygen. When full of the oxygenated LH solution, the perfusion tube was clamped. • (2) On […], weighing 300 g, was stunned and exsanguinated via carotid. The chest and pericardium were opened, and then the heart was suspended in the pericardial cradle. The heart was exercised and immediately put into the cold KH solution (4° C.). The remaining blood was pressed out gently. After aortic cannulation at the top of the ascending aorta, the clamp was opened and the coronary venous effluent was present (route: coronary artery→myocardium→right atrium→vena cava and pulmonary artery). The pressure transducer was connected with the apex of heart to record the graphs and count the heart beat. The coronary venous effluent dripped into the measuring cup via a funnel. • (3) Coronary Blood Flow Measurement: The heart was allowed to recover for 10 minutes to stabilize coronary blood flow, heart rate, and heart beat amplitude. The per-minute flow volume was measured consecutively for 3 minutes. If the values were similar, the average was calculated for the normal coronary blood flow. […] The test sample and isoprenaline was injected into the aortic cannula respectively. The per-minute coronary blood flow, heart rate and heart beat duration were measured during 1˜10 min after administration, the maximum and minimum were picked out to caculate the extreme difference. Note: the second administration should not be given until the coronary blood flow returned to normal. Five replicate experiments were conducted to ensure the reproductivity.

[1] = isolated heart, 0.25 μg injected into aortic cannula, X ± SD

CC(C)NCC(O)c1ccc(O)c(O)c1 (stereo not drawn) [Isoprenaline]
coronary blood flow (result in words) (isolated guinea pig heart): increased
heart rate (result in words) (isolated guinea pig heart): increased
myocardial contraction (result in words) (isolated guinea pig heart): increased
Coronary Blood Flow, After administration [1]: 20 ± 4 mL/min
Heart Rate, After administration [1]: 198 ± 21 time/min
Heart beat duration, After administration [1]: 62 ± 10 min

From patent US20050142229A1, “Pharmaceutical activity and manufacturing method of the four-plant-derived coronary blood flow enhancing agent” (priority 2003, published 2005)
